IC50 data for 20 compounds are collected here from patent US8420657B2 (Novartis AG, priority 2008, dated 2013).

The test system of assay [1] is JAK1/JAK2-dependent nuclear translocation of STAT1-GFP in HT1080 fibrosarcoma cells. The assay can be described thus: STAT1 nuclear translocation assay (Cellomics), IFN-γ stimulated HT1080 STAT1-GFP cells. The format is cell-based. Conditions: Homo sapiens, HT-1080, STAT1 translocation pathway. An excerpt: The medium-throughput (96-well format) cellular automated fluorescence microscopy Cellomics assay can be routinely used to assess the functional activation of Janus Kinases (JAKs), based on the nuclear translocation of their substrate, Signal Transducer and Activator of Transcription (STAT). Nuclear translocation can be monitored either in HT1080 fibrosarcoma cells stably transfected with STAT1 fused to Green Fluorescence Protein (GFP) or in U-2 OS osteosarcoma cells stably transfected with STAT5 fused to Green Fluorescence Protein (GFP). Stimulation of HT1080 cells with interferon-γ (IFN-γ) results in JAK1/JAK2-dependent nuclear translocation of STAT1-GFP, whereas stimulation of U-2 OS cells with recombinant human erythropoietin (rhEpo) results in JAK2-dependent nuclear translocation of STAT5-GFP, both of which can be quantified using the Cellomics Cyto/NucTrans software package. This assay may be used to provide an assessment of the nuclear-cytoplasmic differential (NCD) of STAT-GFP using Hoechst dye to define the boundaries of the nucleus.
HT1080 fibrosarcoma cells may be obtained from ATCC and can be cultured in alpha Modified Eagle Medium with 10% FCS. Cells can be transfected with pEGFP-N2 STAT1 using Fugene 6 Transfection Reagent following the manufacturers' protocol. 24 hours after transfection the medium can be replaced and selected in 1 mg/ml Geneticin.
Compounds can be dissolved in DMSO to a final stock concentration of 10 mM and stored as aliquots at 4° C. Compounds may be pre-diluted in 100% DMSO at 10 mM, 3 mM 1 mM, 0.3 mM, 0.1 mM, 0.03 mM, 0.01 mM and 0.003 mM. Subsequently, compounds may be diluted in medium and added in 50 μl to the cells. The final compound concentrations tested may be 10 μM, 3 μM 1 μM, 0.3 μM, 0.1 μM, 0.03 μM, 0.01 μM and 0.003 μM and the final DMSO concentration can be 0.1%.
HT1080 STAT1-GFP cells may be seeded at a density of 10,000 cells per well in clear-bottom black 96-well Packard View-Plates™. 16-24 hours later, the cells can be treated for 2 hours with 100 ng/ml IFN-γ, washed twice in pre-warmed PBS and fixed in 200 μl of pre-warmed fixation solution (PBS, 3.7% Formaldehyde) for 10 minutes. The plates may be washed twice in 200 μl PBS and incubated, protected from light, in 100 μl of DNA-staining solution (PBS, 0.5 μg/ml Hoechst-33342) for 1 minute. The plates may then be washed once in PBS, and 200 μl PBS finally added per well. The plates, being finally covered with a black adhesive, may be either read directly or stored at 4° C. for later imaging. Where appropriate, the compounds may be added 30 min before stimulation with IFN-γ.
The plates can be read on a Cellomics® ArrayscanII automated fluorescence microscope plate reader equipped with a Mercury-Xenon white light illumination source and a Zeiss Axiovert inverted microscope, using the XF100 dichroic/emission filter cube and matching excitation filters, 10× magnification, and a 0.3 numerical aperture objective. Image acquisition and analysis can be performed using a customized protocol based on the ‘NuclearTranslocation’ Bioapplication. For each well, multiple images (fields) can be acquired until a minimum of 1000 cells are counted using two 2 channels: Channel 1 (Hoechst)=focus+nuclear mask, Channel 2 (GFP)=signal quantification in mask areas as outlined below. Nuclei may be first identified based on the Hoechst staining and a mask generated for each nucleus that then serves as a template to generate a circle (eroded inwards by 1 pixel) and a 3 pixel-wide collar-like ring (off-set outwards by 1 pixel), in which the nuclear and cytoplasmic intensity of GFP, respectively, are quantified in the corresponding channel. High content analysis yields numerous measurements per cell and the GFP intensity differential between the nuclear and the cytoplasmic masks may be chosen as a measure of sub-cellular STAT-GFP relocation. The resulting values may be averaged for all cells in the well to return a single measurement plus standard deviation. […]

The target of assay [2] is T1, GST-JAK2(808-1132) (Homo sapiens, UniProt O60674).
T1 construct: GST-JAK2(808-1132); purchased Invitrogen (Carlsbad, USA) #4288
T1 sequence (O60674 808-1132): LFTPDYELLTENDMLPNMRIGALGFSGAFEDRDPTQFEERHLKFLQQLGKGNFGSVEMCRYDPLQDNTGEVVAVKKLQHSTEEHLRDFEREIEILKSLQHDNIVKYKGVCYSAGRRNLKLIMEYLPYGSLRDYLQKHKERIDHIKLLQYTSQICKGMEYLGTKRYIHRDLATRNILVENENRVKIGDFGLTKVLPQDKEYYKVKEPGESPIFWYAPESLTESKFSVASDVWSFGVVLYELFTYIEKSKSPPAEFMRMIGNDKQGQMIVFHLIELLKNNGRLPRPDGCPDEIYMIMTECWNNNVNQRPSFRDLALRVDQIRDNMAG
The assay can be described thus: JAK2 kinase assay (Caliper mobility shift, LabChip 3000). The format is biochemical. In short, it runs like this: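 Eight-point compound series (final 10–0.003 μM) tested on purchased GST-JAK2 kinase domain (808-1132). Peptide FITC-JAK3tide plus ATP reacted 60 min, 30 °C, then quenched with EDTA; turnover from charge-based separation of substrate and product.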

What is called IC50 is the point on the concentration scale where inhibition reaches its midpoint.

On to `Cc1ccc(Nc2ncc3ccn(-c4ccc(CS(C)(=O)=O)cc4)c3n2)cc1` [Example 140, [7-(4-Methanesulfonylmethyl-phenyl)-7H-pyrrolo[2,3-d]pyrimidin-2-yl]-p-tolyl-amine], for which the IC50 in assay [1] was determined as 0.31 µM; in assay [2], 0.0045 µM.

With `CC(=O)c1ccc(Nc2ncc3ccn(-c4ccc(S(C)(=O)=O)cc4)c3n2)cc1` [Example 79, 1-{4-[7-(4-Methanesulfonyl-phenyl)-7H-pyrrolo[2,3-d]pyrimidin-2-ylamino]-phenyl}-ethanone], the IC50 in assay [1] turned out to be 0.257 µM; in assay [2], 0.0048 µM.

In the case of `CCOc1ccc(Nc2ncc3ccn(-c4ccc(CC(=O)N5CCN(CC)CC5)cc4)c3n2)cc1OCC` [Example 165, 2-{4-[2-(3,4-Diethoxy-phenylamino)-pyrrolo[2,3-d]pyrimidin-7-yl]-phenyl}-1-(4-ethyl-piperazin-1-yl)-ethanone], the IC50 in assay [1] is 0.125 µM; in assay [2], < 0.003 µM.

For the compound `CCN1CCN(Cc2c(F)cc(-n3ccc4cnc(Nc5ccc(F)c(C)c5)nc43)cc2F)CC1` [Example 132, {7-[4-(4-Ethyl-piperazin-1-ylmethyl)-3,5-difluoro-phenyl]-7H-pyrrolo[2,3-d]pyrimidin-2-yl}-(4-fluoro-3-methyl-phenyl)-amine], the IC50 came out at 6.28 µM in assay [1] and 0.0405 µM in assay [2].

Consider `Cc1ccc(Nc2ncc3ccn(-c4ccc(C(=O)N5CCOCC5)cc4)c3n2)cc1F` [Example 233, {4-[2-(3-Fluoro-4-methyl-phenylamino)-pyrrolo[2,3-d]pyrimidin-7-yl]-phenyl}-morpholin-4-yl-methanone], for which the IC50 in assay [1] was found to be 1.18 µM; in assay [2], 0.0064 µM.

Consider `COc1cc(Nc2ncc3ccn(-c4ccc(CC(=O)N5CCN(C)CC5)cc4)c3n2)ccc1F` [Example 150, 2-{4-[2-(4-Fluoro-3-methoxy-phenylamino)-pyrrolo[2,3-d]pyrimidin-7-yl]-phenyl}-1-(4-methyl-piperazin-1-yl)-ethanone], for which the IC50 in assay [1] stood at 0.0645 µM; in assay [2] it was 0.0045 µM.

Turning to `Cn1cc(Nc2ncc3ccn(-c4ccc(C(=O)N5CCOCC5)cc4)c3n2)cn1` [Example 253, {4-[2-(1-Methyl-1H-pyrazol-4-ylamino)-pyrrolo[2,3-d]pyrimidin-7-yl]-phenyl}-morpholin-4-yl-methanone], the values for the IC50 in assay [1] and in assay [2] were 0.13 µM and 0.0071 µM, respectively.

As for `CN1CCN(C(=O)c2ccc(Nc3ncc4ccn(-c5ccc(S(C)(=O)=O)cc5)c4n3)cc2Cl)CC1` [Example 94, {2-Chloro-4-[7-(4-methanesulfonyl-phenyl)-7H-pyrrolo[2,3-d]pyrimidin-2-ylamino]-phenyl}-(4-methyl-piperazin-1-yl)-methanone], the half-inhibitory concentration (IC50) turned out to be 0.259 µM in assay [1] and 0.0038 µM in assay [2].

For the compound `O=C(c1c(F)cc(-n2ccc3cnc(Nc4ccc(N5CCN(CCO)CC5)nc4)nc32)cc1F)N1CCOCC1` [Example 264, [2,6-Difluoro-4-(2-{6-[4-(2-hydroxy-ethyl)-piperazin-1-yl]-pyridin-3-ylamino}-pyrrolo[2,3-d]pyrimidin-7-yl)-phenyl]-morpholin-4-yl-methanone], the IC50 in assay [1] was 0.165 µM; in assay [2] it was < 0.003 µM.

Consider `CN1CCN(C(=O)c2c(F)cc(-n3ccc4cnc(Nc5ccc(CN6CCS(=O)(=O)CC6)cc5)nc43)cc2F)CC1` [Example 190, (4-{2-[4-(1,1-Dioxido-thiomorpholin-4-ylmethyl)-phenylamino]-pyrrolo[2,3-d]pyrimidin-7-yl}-2,6-difluoro-phenyl)-(4-methyl-piperazin-1-yl)-methanone], for which the IC50 in assay [1] amounted to 0.439 µM; in assay [2], 0.0052 µM.

Take `C[C@@H]1CN[C@@H](C)CN1c1ccc(Nc2ncc3ccn(-c4ccc(S(C)(=O)=O)cc4)c3n2)cn1` (racemic) [Example 274, [6-((2R,5S)-2,5-Dimethyl-piperazin-1-yl)-pyridin-3-yl]-[7-(4-methanesulfonyl-phenyl)-7H-pyrrolo[2,3-d]pyrimidin-2-yl]-amine]: the IC50 stood at 0.52 µM in assay [1] and 0.0072 µM in assay [2].

As to `CCN1CCCC1CNC(=O)c1ccc(Nc2ncc3ccn(-c4ccc(S(C)(=O)=O)cc4)c3n2)cc1` (stereo not shown) [Example 68, N-(1-Ethyl-pyrrolidin-2-ylmethyl)-4-[7-(4-methanesulfonyl-phenyl)-7H-pyrrolo[2,3-d]pyrimidin-2-ylamino]-benzamide], the IC50 in assay [1] is 0.105 µM; in assay [2], < 0.003 µM.

In the case of `Cc1ccc(Nc2ncc3ccn(-c4cc(F)c(CN5CCOCC5)c(F)c4)c3n2)cc1Cl` [Example 128, (3-Chloro-4-methyl-phenyl)-[7-(3,5-difluoro-4-morpholin-4-ylmethyl-phenyl)-7H-pyrrolo[2,3-d]pyrimidin-2-yl]-amine], the IC50 in assay [1] amounted to 3.68 µM; in assay [2], 0.12 µM.

Take `CC(=O)N1CCN(Cc2ccc(Nc3ncc4ccn(-c5ccc(C(=O)N6CCOCC6)cc5)c4n3)cc2)CC1` [Example 338, 1-[4-(4-{7-[4-(Morpholine-4-carbonyl)-phenyl]-7H-pyrrolo[2,3-d]pyrimidin-2-ylamino}-benzyl)-piperazin-1-yl]-ethanone]: the IC50 in assay [1] was determined as 0.135 µM; in assay [2], 0.0039 µM.

In the case of `O=C1CN(Cc2ccc(Nc3ncc4ccn(-c5cc(F)c(CN6CCOCC6)c(F)c5)c4n3)cc2)CCN1` [Example 258, 4-{4-[7-(3,5-Difluoro-4-morpholin-4-ylmethyl-phenyl)-7H-pyrrolo[2,3-d]pyrimidin-2-ylamino]-benzyl}-piperazin-2-one], the IC50 in assay [1] was 0.08 µM; in assay [2] it was < 0.003 µM.

As to `CN1CCN(c2ccc(Nc3ncc4ccn(-c5cc(F)c(CN6CCS(=O)(=O)CC6)c(F)c5)c4n3)cn2)CC1` [Example 443, {7-[4-(1,1-Dioxido-thiomorpholin-4-ylmethyl)-3,5-difluoro-phenyl]-7H-pyrrolo[2,3-d]pyrimidin-2-yl}-[6-(4-methyl-piperazin-1-yl)-pyridin-3-yl]-amine], the IC50 in assay [1] was 0.0095 µM; in assay [2], ≤ 0.003 µM.

Take `COc1cc(Nc2ncc3ccn(-c4ccc(S(C)(=O)=O)cc4)c3n2)cc(OC)c1OC` [Example 4, [7-(4-Methanesulfonyl-phenyl)-7H-pyrrolo[2,3-d]pyrimidin-2-yl]-(3,4,5-trimethoxy-phenyl)-amine]: the IC50 in assay [1] was determined as 0.0367 µM; in assay [2] it was 0.0022 µM.

Turning to `CC(C)Oc1ccc(Nc2ncc3ccn(-c4ccc(CC(=O)N5CCN(C)CC5)cc4)c3n2)cc1` [Example 101, 2-{4-[2-(4-Isopropoxy-phenylamino)-pyrrolo[2,3-d]pyrimidin-7-yl]-phenyl}-1-(4-methyl-piperazin-1-yl)-ethanone], the IC50 is 0.18 µM in assay [1] and < 0.003 µM in assay [2].

For `Cn1cc(Nc2ncc3ccn(-c4cc(F)c(C(=O)N5CCOCC5)c(F)c4)c3n2)cn1` [Example 241, {2,6-Difluoro-4-[2-(1-methyl-1H-pyrazol-4-ylamino)-pyrrolo[2,3-d]pyrimidin-7-yl]-phenyl}-morpholin-4-yl-methanone], the IC50 in assay [1] was 0.37 µM; in assay [2], 0.0054 µM.

Turning to `Cc1ccc(Nc2ncc3ccn(-c4ccc(C(=O)N5CCOCC5)cc4)c3n2)cc1C` [Example 169, {4-[2-(3,4-Dimethyl-phenylamino)-pyrrolo[2,3-d]pyrimidin-7-yl]-phenyl}-morpholin-4-yl-methanone], the concentration for half-maximal inhibition (IC50) came out at 0.093 µM in assay [1] and 0.0043 µM in assay [2].
